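Growth conditions: 96-well plates. Treatment: test compound, 48 hours, 5 concentrations. Analysis: linear interpolation between bracketing concentrations; unreached endpoints set to highest concentration. GI50: concentration for 50% inhibition of growth. TGI: concentration producing complete growth inhibition.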
Tests used:
Experiment in all cases: NCI tumour cell line growth inhibition, 48 h
[1] = test system: MDA-MB-468 breast
[2] = test system: SN12C renal
[3] = test system: CAKI-1 renal
[4] = test system: SNB-75 CNS
[5] = test system: U251 CNS
[6] = test system: OVCAR-8 ovarian
[7] = test system: NCI-H522 lung
[8] = test system: OVCAR-3 ovarian
[9] = test system: OVCAR-4 ovarian
[10] = test system: HOP-62 NSCLC
[11] = test system: A549 NSCLC
[12] = test system: M14 melanoma
[13] = test system: SK-MEL-2 melanoma
[14] = test system: NCI-H23 lung
[15] = test system: UO-31 renal
[16] = test system: HT29 colon
[17] = test system: RPMI-8226 leukemia
[18] = test system: DU-145 prostate
[19] = test system: HCT-116 colon
[20] = test system: TK-10 renal
[21] = test system: SF-539 CNS
[22] = test system: MOLT-4 leukemia
[23] = test system: LOX IMVI melanoma
[24] = test system: COLO 205 colon
[25] = test system: HS 578T breast
[26] = test system: T-47D breast
[27] = test system: MDA-MB-435
[28] = test system: SF-268 CNS
[29] = test system: CCRF-CEM leukemia
[30] = test system: IGROV1 ovarian
[31] = test system: NCI-H460 lung
[32] = test system: MDA-MB-231 breast
[33] = test system: SW-620 colon
[34] = test system: 786-0 renal
[35] = test system: BT-549 breast
[36] = test system: SF-295 CNS
[37] = test system: ACHN renal
[38] = test system: SK-OV-3 ovarian
[39] = test system: SR leukemia
[40] = test system: UACC-257 melanoma
[41] = test system: UACC-62 melanoma
[42] = test system: RXF 393 renal
[43] = test system: HCC-2998 colon
[44] = test system: MCF7 breast
[45] = test system: OVCAR-5 ovarian
[46] = test system: MALME-3M melanoma
[47] = test system: A498 renal
[48] = test system: HCT-15 colon
[49] = test system: HL-60(TB) leukemia
[50] = test system: NCI-H226 lung
[51] = test system: HOP-92 NSCLC
[52] = test system: SK-MEL-5 melanoma
[53] = test system: SNB-19 CNS
[54] = test system: K-562 leukemia
[55] = test system: SK-MEL-28 melanoma
[56] = test system: KM12 colon
[57] = test system: PC-3 prostate
[58] = test system: EKVX NSCLC

COc1ccccc1/C=N\N/C(N)=N\N=C\c1ccccc1OC
GI50 [1]: 0.613 µM | TGI [1]: > 45.7 µM

CCN1CCN(C(=O)[C@@]2(C)CC[C@]3(C)CC[C@]4(C)C(=CC(=O)[C@@H]5[C@@]6(C)CC[C@H](OC7C[C@@H](O)[C@@H](O)C(C)O7)C(C)(C)[C@@H]6CC[C@]54C)[C@@H]3C2)CC1 (stereo not given in full)
GI50 [1]: 1.49 µM | TGI [1]: 6.17 µM

O=C(c1ccc(Cl)cc1)C1[C@H](c2ccc(Br)cc2)[C@@H](c2ccccc2)NC12C(=O)Nc1ccccc12 (stereo not given in full)
GI50 [2]: 5.41 µM | TGI [2]: 12.3 µM | GI50 [3]: 2.88 µM | TGI [3]: 17.4 µM | GI50 [4]: 5.1 µM | TGI [4]: 26.1 µM | GI50 [5]: 7.49 µM | TGI [5]: 16 µM | GI50 [6]: 8.26 µM | TGI [6]: 17.3 µM | GI50 [7]: 5.93 µM | TGI [7]: 15.5 µM | GI50 [8]: 8.74 µM | TGI [8]: 27.4 µM | GI50 [9]: 8.37 µM | TGI [9]: 31.3 µM | GI50 [10]: 8.69 µM | TGI [10]: 18.3 µM | GI50 [11]: 5.03 µM | TGI [11]: 15.9 µM | GI50 [12]: 6.97 µM | TGI [12]: 16.4 µM | GI50 [13]: 8.59 µM | TGI [13]: 16.9 µM | GI50 [14]: 8.53 µM | TGI [14]: 19.6 µM | GI50 [15]: 3.37 µM | TGI [15]: 12 µM | GI50 [16]: 5.7 µM | TGI [16]: 15 µM | GI50 [17]: 6.53 µM | TGI [17]: 33.9 µM | GI50 [18]: 9.92 µM | TGI [18]: 28.5 µM | GI50 [19]: 3.83 µM | TGI [19]: 13.5 µM | GI50 [20]: 8.72 µM | TGI [20]: 20.1 µM | GI50 [21]: 8.59 µM | TGI [21]: 18 µM | GI50 [22]: 2.69 µM | TGI [22]: 48.7 µM | GI50 [23]: 5.04 µM | TGI [23]: 14.3 µM | GI50 [24]: 9.95 µM | TGI [24]: 19.6 µM | GI50 [25]: 8.79 µM | TGI [25]: 26.3 µM | GI50 [26]: 3.96 µM | TGI [26]: 16 µM | GI50 [27]: 7.84 µM | TGI [27]: 16.9 µM | GI50 [28]: 7.03 µM | TGI [28]: 28.9 µM | GI50 [29]: 4.54 µM | TGI [29]: 26.8 µM | GI50 [30]: 7.01 µM | TGI [30]: 16.2 µM | GI50 [31]: 5.88 µM | TGI [31]: 16 µM | GI50 [32]: 6.21 µM | TGI [32]: 13.5 µM | GI50 [33]: 7.4 µM | TGI [33]: 18.6 µM | GI50 [34]: 8 µM | TGI [34]: 23.1 µM | GI50 [35]: 8.86 µM | TGI [35]: 17 µM | GI50 [36]: 6.33 µM | TGI [36]: 16.9 µM | GI50 [37]: 5.64 µM | TGI [37]: 15.5 µM | GI50 [38]: 14.8 µM | TGI [38]: 54 µM | GI50 [39]: 4.32 µM | TGI [39]: 42.2 µM | GI50 [40]: 7.28 µM | TGI [40]: 16.3 µM | GI50 [41]: 4.16 µM | TGI [41]: 12.1 µM | GI50 [42]: 6.62 µM | TGI [42]: 14 µM | GI50 [43]: 7.79 µM | TGI [43]: 16.7 µM | GI50 [44]: 4.65 µM | TGI [44]: 29.3 µM | GI50 [45]: 7.19 µM | TGI [45]: 15.1 µM | GI50 [46]: 8.65 µM | TGI [46]: 16.3 µM | GI50 [47]: 10.7 µM | TGI [47]: 22.2 µM | GI50 [48]: 6.91 µM | TGI [48]: 18.7 µM | GI50 [49]: 8.74 µM | TGI [49]: 40.8 µM | GI50 [50]: 7.87 µM | TGI [50]: 15.9 µM | GI50 [51]: 6.27 µM | TGI [51]: 15.1 µM | GI50 [52]: 9.7 µM | TGI [52]: 17.7 µM | GI50 [1]: 8.43 µM | TGI [1]: 19.5 µM | GI50 [53]: 10.7 µM | TGI [53]: 42.2 µM | GI50 [54]: 2.94 µM | TGI [54]: 56 µM | GI50 [55]: 7.53 µM | TGI [55]: 15.1 µM | GI50 [56]: 6.13 µM | TGI [56]: 17.9 µM | GI50 [57]: 2.86 µM | TGI [57]: 17.7 µM | GI50 [58]: 9.02 µM | TGI [58]: 29 µM
